# Measurements from US20240226241A1, “FORMULATIONS FOR INTRAOCULAR DELIVERY OF PEPTIDES DERIVED FROM TYPE IV COLLAGEN” (AsclepiX Therapeutics, Inc., priority 2022, published 2024).
# No end group written: not given here.
# Legend:
# [1] = rabbit, in vivo
# Description: (§1) This example evaluates the pharmacokinetics (PK)/tolerability of the AXT107 suspension (5% sucrose, 0.9% NaCl) at 4 different dose levels administered by suprachoroidal (Sch) injection in female Dutch Belted rabbits. In Phase 1 of these experiments, animals received a 100 μL SCh injection in both eyes on Day 0. In these experiments, Group 1 received 469 μg of AXT107 peptide, Group 2 received 246 μg of AXT107 peptide, and Group 3 received vehicle (i.e., 5% sucrose in saline).
# (§2) Blood was collected from Group 3 pre-dose, and in terminal animals on Day 90, and was processed for plasma. All eyes in Groups 1 and 2 and two Group 3 eyes were collected and dissected. Blood and ocular tissues underwent PK analysis.
# (§3) In the next studies, animals received a 100 μL SCh injection (of AXT107 suspension, 5% sucrose and 0.9% NaCl) in both eyes on Day 0. Group 1 animals received 340 μg of AXT107 peptide, Group 2 animals received 219 μg AXT107 peptide, Group 3 animals received 142 μg of AXT107 peptide, and Group 4 animals received 115 μg AXT107 peptide.
# (§4) On Days 1, 15, 30, 60, and 90, n=2 animals/group were euthanized and plasma and ocular tissues were collected for PK.
# (§5) Plasma and ocular tissues collected during the study were analyzed for AXT107 peptide PK parameters by non-GLP liquid chromatography with tandem-mass spectrometry (LC/MS/MS).
# [2] = Pharmacokinetics after suprachoroidal injection, LC/MS/MS of plasma and ocular tissues; conditions: SCh injection
# Description: as §1, §2, §3, §4, §5
# [3] = Tolerability after suprachoroidal injection (ocular examination, tonometry, OCT, H&E histopathology); conditions: for tolerability: 100 μL SCh injection in both eyes on Day 0, to Day 90
# Description: This example evaluates the pharmacokinetics (PK)/tolerability of the AXT107 suspension (5% sucrose, 0.9% NaCl) at 4 different dose levels administered by suprachoroidal (Sch) injection in female Dutch Belted rabbits. In Phase 1 of these experiments, animals received a 100 μL SCh injection in both eyes on Day 0.
# Ocular examinations were performed at baseline, and on Days 1, 3, 7, 15, 30, 60, and 90. […] Tonometry was performed at baseline, and on Days 1, 3, 7, 15, 30, 60, and 90. […] Optical coherence tomography (OCT) was performed at baseline, post-dose to confirm SCh dosing, and on Day 15.
# All eyes in Groups 1 and 2 and two Group 3 eyes were collected and dissected. […] From Group 3, two eyes were collected and processed for hematoxylin & eosin (H&E) histopathology.
# In the next studies, animals received a 100 μL SCh injection (of AXT107 suspension, 5% sucrose and 0.9% NaCl) in both eyes on Day 0. […] Ocular examinations were performed at baseline and on Days 1, 9, 30, 60, and 90.
# Tonometry was performed at baseline and on Days 1, 9, 30, 60, and 90.
# OCT was performed at baseline, post-dose to confirm SCh dosing, and in terminal animals on Days 15 and 30.
# On Day 90, an additional Group 1 animal was euthanized and OU were processed for H&E histopathology.
sequence,measurement,setting,value
LRRFSTAPFAFIDINDVINF [AXT107 peptide],drug levels in choroid/RPE,[1],present
same,drug levels in retina,[2],present
same,drug levels in aqueous humor,[2]; all timepoints,absent
same,drug levels in plasma,[2]; all timepoints,absent
same,H&E histopathology of eyes,"[3]; Group 1 (340 μg), Day 90, both eyes, considered incidental (needle damage), unrelated to AXT107",mild mononuclear cell infiltrate in the limbal conjunctiva
same,tolerability,[3]; Phase 1: 469 μg and 246 μg,well tolerated
same,tolerability,[3]; all doses,well tolerated
